# Experiments:
# [1] = tested on: p-ERK; test: Western blot of phosphorylated ERK; format: cell-based, human; conditions: 8505C-PNIS-PCMV cells
# Method: (§1) 8505C-PNIS-PCMV cells were treated with TKI-0266 and incubated for 24 hours, and then the cell pellet was washed twice with cold phosphate-buffered saline (hereinafter referred to as PBS). An RIPA buffer (Thermo Fisher Scientific, USA) containing a protease/phosphatase cocktail inhibitor kit (Thermo Fisher Scientific) was added to the cell pellet to lyse the cells. The lysed cells were gently vortexed three times at a time interval, and centrifuged at 13000xg at 4° C. to isolate a soluble protein. The isolated protein was quantified using a BCA protein assay kit (Thermo Fisher Scientific).
# (§2) Equal amounts of proteins were separated by 10% SDS-PAGE (sodium dodecyl sulfate-polyacrylamide gel electrophoresis), and then the proteins were transferred to PVDF membranes (Millipore, USA). The PVDF membrane was blocked with 3% BSA (bovine serum albumin) in TBS containing Tween-20 (TBS-T) for 1 hour, and incubated with primary antibodies in 0.5% BSA overnight at 4° C. The next day, the PVDF membrane was incubated with HRP-conjugated secondary antibodies at room temperature for 1 hour, and washed three times with TBS-T. The protein bands were visualized using ECL detection reagent (GE Healthcare Life Sciences, Italy) and the Fusion FX chemiluminescence analyzer system (Vilber lourmat, France). […]
# [2] = tested on: anaplastic thyroid cancer xenograft (8505C-PNIS-PCMV); test: In vivo bioluminescence imaging of F-luc2 (NIS expression); set-up: species or system Balb/c nude mice; conditions: 50 mg/kg every day for 5 days, D-luciferin
# Method: Female Balb/c nude mice, 5.5-week old with an average weight of 18.9±0.37 g (mean±standard deviation [SD]), were purchased (Hamamatsu, Shizuoka, Japan). The mice were acclimated under specific pathogen-free conditions for one week before starting the experiment, and were maintained at a temperature of 20 to 25° C. and a relative humidity of 40 to 70%. To establish anaplastic thyroid cancer xenograft mouse models, 8505C-PNIS-PCMV s (5×10^6) were mixed with Matrigel (Corning) at a ratio of 1:1 and injected subcutaneously into the right flank region of each mouse.
# In order to examine whether the expression of NIS would be increased by TKI-0266, mice for use in the experiment were divided into two groups (n=5): the vehicle group; and the TKI-0266-administered group (50 mg/kg). 50 mg/kg of TKI-0266 was administered intravenously to the established anaplastic thyroid cancer xenograft mice every day for 5 days. On day 0 (before administration of TKI-0266) and day 6 after the start of administration of TKI-0266, to measure the R-luc signal with IVIS Lumina III, h-coelenterazine (15 μg/ml) was administered to the mice by intravenous injection. Next, D-luciferin (150 μg/ml) was administered intraperitoneally to the mice, and the bioluminescence image (hereinafter referred to as BLI) was acquired.
# [3] = tested on: 8505C cells; test: In vitro 125I uptake assay; format: cell-based, human; conditions: anaplastic thyroid cancer cells, 24 hours treatment
# Method: 8505C cells (1.25×10^5) were seeded and incubated in a 24-well plate for 24 hours, and then treated with TKI-0266 and further incubated for 24 hours. Thereafter, the medium was removed, and the cells were washed with bHBSS (Hank's balanced salt solution containing 0.5% BSA). The cells were incubated with 500 μl of bHBSS, 3.7 kBq carrier-free ^125I (Perkin-Elmer), and 10 μmol/L sodium iodide (specific activity of 740 MBq/mmol) at 37° C. for 30 minutes. Thereafter, the cells were washed twice with cold bHBSS and lysed by adding 500 μL of 2% SDS solution thereto. Radioactivity was measured using a Cobra II gamma-counter (Canberra Packard, Canada). The ^125I uptake values were normalized by comparing the amount of total protein determined by BCA protein assay kit.
# [4] = tested on: NIS promoter; test: NIS promoter activity by F-luc2 bioluminescence (BLI) in dual-reporter cells; format: cell-based, human; conditions: 8505C-PNIS-PCMV cells
# Description: A pNIS-FL2-TurboFP635-pCMV-Rluc recombinant vector expressing reporter genes driven by dual promoters was constructed by Cosmo Genetech, Ltd. (Republic of Korea) using a pNIS-FL2-TurboFP635 vector and a pcDNA3.1/Hygro(+) vector. Specifically, in order to screen a substance that increases the activity of NIS promoter, Firefly-luciferase2(F-luc2) and TurboFP635 were included downstream (clockwise) of the NIS promoter. In order count cells, CMV promoter and Renilla-luciferase (R-luc) were included upstream (counterclockwise) of the NIS promoter. The pNIS-FL2-TurboFP635 vector was provided from Dr. Abhijit De (ACTREC, India), and the pcDNA3.1/Hygro(+) vector was purchased from invitrogen (USA).
# The 8505C cell line was transfected with the pNIS-FL2-TurboFP635-pCMV-Rluc recombinant vector using the Fu-GENE HD solution according to the protocols of the manufacturer (Promega). The ratio of the recombinant vector to the Fu-GENE HD solution was 1:4, and the transfected cells were selected using 600 μg/ml of geneticin (AG Scientific). The selected cell line that stably expresses the dual-reporter gene system is referred to herein as ‘8505C-PNIS-PCMV’ cell line.
# To examine transcriptional regulation of the NIS (sodium iodide symporter) promoter, the 8505C-PNIS-PCMV cells were treated with a tyrosine kinase inhibitor (hereinafter referred to as TKI) library for 24 hours. Next, D-luciferin (150 μg/ml) was added to the cells, and the activity of NIS promoter was measured by IVIS Lumina III (Perkin-Elmer, Wellesley, Mass., USA). To normalize the NIS promoter activity to cell number, 10 μg/ml of h-coelenterazine was added to the cells, and the activity of R-luc was measured. The activity of F-luc2 was divided by the R-luc activity. The TKI library used in the experiment was obtained from the Korea Chemical Bank (www.chembank.org) in the Korea Research Institute of Chemical Technology (Republic of Korea). Among the TKI candidates, TKI-0266 was selected, purchased from Chemdiv (USA), dissolved in DMSO, and then stored at −80° C.
# [5] = tested on: TPO, TSHR, Tg, TTF-1 and Pax-8; test: Western blot of thyroid-specific proteins; format: cell-based, human; conditions: 8505C-PNIS-PCMV cells
# Method: as §1, §2
compound,measurement,setting,value
Cc1cc2c(N(C)C3CCCCC3)ncnc2s1 [TKI-0266],level of phosphorylated ERK (p-ERK) protein,[1],significantly decreased
same,activity of F-luc2 in vivo (NIS expression),[2],significantly increased
same,iodine uptake compared to vehicle group,[3],significantly increased
same,concentration showing the highest F-luc2 activity,[4],12.5 µM
same,"BLI signal activity of F-luc2 (NIS promoter activity), increase","[4]; 24 hours, screening",3.19 fold
same,BLI signal of F-luc2 as treatment concentration increased,[4]; FIG. 7A,increased
same,activity of NIS promoter (normalized by cell viability) as treatment concentration increased,[4]; FIG. 8,increased
same,"expression of TPO, TSHR, Tg, TTF-1 and Pax8 proteins",[5],increased
same,"expression of Tg, TPO, Pax8, TSHR, NIS and TTF-1 as treatment concentration increased",[5]; FIG. 12,increased

# From US12011447B2, “Pharmaceutical composition for treating thyroid cancer comprising tyrosine kinase activity inhibitor as active ingredient” (Kyungpook National University Industry-Academic Cooperation …, priority 2017, dated 2024)
